US8158621B2, “Methods of treating or preventing autoimmune diseases with 2,4-pyrimidinediamine compounds” (Rigel Pharmaceuticals, Inc., priority 2002, dated 2012)

System: Human Jurkat T-cells (clone N)
Assay: Jurkat T-cell activation (anti-TCR, CD69 upregulation)
Type: cell-based
Conditions: not given
In short: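 Readout is CD69 upregulation by flow cytometry (anti-CD69-APC, 20 min at 4 °C) after 20 h anti-TCR (C305, 500 ng/ml) stimulation at 37 °C.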

Row | IC50 [µM] | Compound
1 | 7.54 | CCOC(=O)C(C)(C)c1ccc(Nc2nc(Nc3cccc(O)c3)ncc2F)cc1 [Compound R935169]
2 | 3.38 | Fc1cnc(Nc2ccc3c(c2)OCCCO3)nc1Nc1ccc2c(c1)OCCCO2 [Compound R935162]
3 | > 10 | CC(C)(CO)c1ccc(Nc2nc(Nc3ccc4c(c3)OCCO4)ncc2F)cc1 [Compound R935149]
4 | 2.5 | CCOC(=O)CCn1ncc2ccc(Nc3ncc(F)c(Nc4ccc5c(c4)OCCO5)n3)cc21 [Compound R935286]
5 | 3.38 | Cn1cc2cc(Nc3ncc(F)c(Nc4ccc5c(c4)OCCO5)n3)ccc2n1 [Compound R935300]
6 | 1.45 | Fc1cnc(Nc2ccc3[nH]ncc3c2)nc1Nc1ccc2c(c1)OCCO2 [Compound R935198]

The next lines start with the molecule.

Row | Compound | IC50 [µM]
7 | CCOC(=O)c1cnc(Nc2ccc3c(c2)NC(=O)CO3)nc1Nc1ccc2c(c1)NC(=O)CO2 [Compound R926325] | > 10
8 | COC(=O)COc1ccc(Nc2cc(Cl)nc(Nc3ccc(OCC(=O)OC)cc3)n2)cc1 [Compound R926411] | 16.9
9 | CNC(=O)COc1cccc(Nc2ncc(F)c(Nc3cccc(C(C)=O)c3)n2)c1 [Compound R950371] | 1.1
10 | C=CCNC(=O)Nc1c(Nc2ccc(OCC(=O)OCC)cc2)nc(Nc2ccc(OCC(=O)OCC)cc2)nc1C(=O)OCC [Compound R926585] | > 10
11 | CNC(=O)COc1cccc(Nc2ncc(F)c(Nc3ccc(OC)c(C(F)(F)F)c3)n2)c1 [Compound R926835] | 3.58
12 | CC(C)(C)OC(=O)COc1ccc(Nc2nc(Cl)c(Cl)c(Nc3ccc(OCC(=O)OC(C)(C)C)cc3)n2)cc1 [Compound R926576] | > 10
13 | O=C(NCCN1CCOCC1)c1cc2cc(Nc3ncc(F)c(Nc4ccc5oc(C(=O)NCCN6CCOCC6)cc5c4)n3)ccc2o1 [Compound R950173] | 9.18
14 | OCCOc1cccc(Nc2ncc(CO)c(Nc3cccc(O)c3)n2)c1 [Compound R926735] | 5.98
15 | Cc1cc(Nc2nc(Nc3cccc(OCC(=O)N4CCNCC4)c3)ncc2F)cc(Cl)c1O [Compound R945149] | 1.23
16 | Fc1cnc(Nc2cccc(NCCOCc3ccccc3)c2)nc1Nc1cccc(NCCOCc2ccccc2)c1 [Compound R950174] | > 10
17 | CNC(=O)COc1cccc(Nc2ncc(F)c(Nc3ccc4c(c3)C(N=[N+]=[N-])CCO4)n2)c1 (stereo not shown) [Compound R950383] | 1.03
18 | Cc1cnc(Nc2ccc(OCc3nnn[nH]3)cc2)nc1Nc1cccc(O)c1 [Compound R920820] | > 10

Same assay, conditions: Homo sapiens, Jurkat

Row | IC50 [µM] | Compound
19 | 10.8 | CCOC(=O)c1cc2cc(Nc3ncc(F)c(Nc4ccc(C(C)(C)C)cc4)n3)ccc2[nH]1 [Compound R926474]
20 | > 10 | CCCCCCOc1ccc(Nc2ncc(F)c(Nc3ccc4c(c3)OCCO4)n2)cc1 [Compound R920664]
21 | 24.5 | Fc1cnc(NCc2ccc3c(c2)CCO3)nc1Nc1ccc2c(c1)OCCO2 [Compound R950205]

More lines, now with the values behind:

Row | Compound | IC50 [µM]
22 | Oc1c(Cl)cc(Nc2ncc(F)c(Nc3cc(Cl)c(O)c(Cl)c3)n2)cc1Cl [Compound R940215] | > 10
23 | Brc1cnc(Nc2cccc(-c3ccccc3)c2)nc1Nc1cccc(-c2ccccc2)c1 [Compound R925803] | > 10
24 | Fc1cnc(Nc2cccc(-c3ccccc3)c2)nc1Nc1cccc(-c2ccccc2)c1 [Compound R926403] | > 10
25 | Nc1cccc(Nc2ccnc(Nc3cccc(N)c3)n2)c1 [Compound R950109] | 12.8
26 | O=C1CCNC2=COc3ccc(Nc4nc(Nc5cccc(O)c5)ncc4F)cc3N12 [Compound R945237] | 0.838
27 | Oc1ccc(Nc2ncc(F)c(Nc3ccc(O)c(C(F)(F)F)c3)n2)cc1C(F)(F)F [Compound R950093] | 11.3
28 | Oc1cccc(Nc2nc(Nc3cc(Cl)c(O)c(Cl)c3)ncc2F)c1 [Compound R926890] | 11.3
29 | c1ccc(-c2cc(Nc3ccc4c(c3)OCCO4)nc(Nc3ccc4c(c3)OCCO4)n2)cc1 [Compound R925811] | > 10
30 | COc1cccc(Nc2ncc(F)c(Nc3cccc(OC)c3)n2)c1 [Compound R926065] | 6.73
31 | N#Cc1cc(Nc2ncc(F)c(Nc3ccc(O)c(C#N)c3)n2)ccc1O [Compound R950092] | > 10
